Test results from PubChem BioAssay (NCI).
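Protocol summary: plate cells (96-well), add compound at 5 concentrations, incubate 48 h, interpolate endpoints linearly. GI50: concentration for 50% inhibition of growth. TGI is the concentration that stops growth completely.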

How the values were obtained:
Experiment in all cases: DTP human tumour cell line panel, 48 h
NCI-H460 lung = tested on: NCI-H460 lung
SK-MEL-2 melanoma = tested on: SK-MEL-2 melanoma
OVCAR-3 ovarian = tested on: OVCAR-3 ovarian
A549 NSCLC = tested on: A549 NSCLC
T-47D breast = tested on: T-47D breast
HS 578T breast = tested on: HS 578T breast
HL-60(TB) leukemia = tested on: HL-60(TB) leukemia
OVCAR-8 ovarian = tested on: OVCAR-8 ovarian
SNB-75 CNS = tested on: SNB-75 CNS
SK-MEL-5 melanoma = tested on: SK-MEL-5 melanoma

| Structure (SMILES) | GI50 (NCI-H460 lung) [µM] | TGI (NCI-H460 lung) [µM] | GI50 (SK-MEL-2 melanoma) [µM] | TGI (SK-MEL-2 melanoma) [µM] | GI50 (OVCAR-3 ovarian) [µM] | TGI (OVCAR-3 ovarian) [µM] | GI50 (A549 NSCLC) [µM] | TGI (A549 NSCLC) [µM] | GI50 (T-47D breast) [µM] | TGI (T-47D breast) [µM] | GI50 (HS 578T breast) [µM] | TGI (HS 578T breast) [µM] | GI50 (HL-60(TB) leukemia) [µM] | TGI (HL-60(TB) leukemia) [µM] | GI50 (OVCAR-8 ovarian) [µM] | TGI (OVCAR-8 ovarian) [µM] | GI50 (SNB-75 CNS) [µM] | TGI (SNB-75 CNS) [µM] | GI50 (SK-MEL-5 melanoma) [µM] | TGI (SK-MEL-5 melanoma) [µM] |
| --- | --- | --- | --- | --- | --- | --- | --- | --- | --- | --- | --- | --- | --- | --- | --- | --- | --- | --- | --- | --- |
| Clc1cc(Cl)c(OCC#CI)cc1Cl | 15.5 | 30.9 | 7.98 | 21.3 | 1.85 | 3.91 | 16.8 | 31.4 | 1.22 | 3.01 | 16.9 | 50.4 | 2 | 5.22 | 3.39 | 13.1 | 6.13 | 20 | 5.93 | 18.9 |
| COc1ccc(C(OCC2OC(n3ccc(NC(=O)c4ccccc4)nc3=O)C(O)C2O)(c2ccccc2)c2ccccc2)cc1 (stereo not given) | – | 4.02 | – | 6.68 | – | 3.15 | – | 14.9 | – | 9.42 | – | 4.86 | – | 4.36 | – | 3.22 | – | 22 | – | 3.32 |
| CN1CCN(Cc2ccc(NC(=O)c3cncc(C#Cc4cnc(N)c5ccncc45)c3)cc2C(F)(F)F)CC1 | 0.374 | 5.81 | 0.3 | 1.07 | 1.53 | 7.51 | 1.38 | 6.92 | 1.75 | 12.5 | 0.286 | 1.98 | 0.387 | 2.89 | 1.42 | 8.86 | 0.898 | 5.08 | 1.18 | 3.93 |
